Results taken from publication PMC2360547 (British Journal of Cancer, 2006).
Several values for one entry are separate records, joined by “and”; a condition that tells them apart may be missing. Equal values may be shown once. Read-outs that look alike come from different tables or passages of the source.

Columns and labels:
PKC isotypes = details: metabolites, compared with parent drug; no reference given; read-out: IC50 against PKC isotypes; cited from earlier work
[1] = Tumour tissue concentrations by HPLC with fluorescence detection; assay type: in vivo, human; details: for Kp at 28 day / concentration at 28 day: human, oral, 10 subjects; for Kp at 28 day: tumour tissue / plasma, 75 mg three times a day; for Kp at 28 day / Tissue/plasma ratios: tumour tissue to plasma; for concentration at 28 day / Tissue concentrations: tumour tissue, about 1 month of 75 mg tid; for concentration at 28 day: 75 mg tid; for Tissue/plasma ratios / Tissue concentrations: individual subjects
Procedure: (§1) Therefore, the tumour tissue was frozen and cut into as small as possible pieces with a scalpel. The pieces were weighed, added to 1 ml of water, vortexed and thereafter treated like plasma. The assay for plasma samples was validated with acceptable calibration curves, within-study variability and total recovery. […] Due to limited availability of tumour tissue, the within-study validation for tumour assay was not performed.

[2] = Plasma concentrations by HPLC with fluorescence detection; assay type: in vivo, human; details: for concentration at 28 day: human, plasma, oral, 75 mg tid, 12 subjects, about 1 month of 75 mg tid; for Plasma concentrations: individual subjects, sampling day 27-30, midostaurin 75 mg tid
Procedure: as §1

[3] = parameters: method as in Propper et al, 2001; details: Phase I trial, oral; ref Propper et al, 2001; cited from earlier work
[4] = read-out: Tissue/plasma ratios, maximum
[5] = read-out: Tissue/plasma ratios, mean
[6] = read-out: Tissue/plasma ratios, median
[7] = read-out: Tissue/plasma ratios, minimum
[8] = read-out: Tissue concentrations, maximum
[9] = read-out: Tissue concentrations, mean
[10] = read-out: Tissue concentrations, median
[11] = read-out: Tissue concentrations, minimum
[12] = read-out: Plasma concentrations, maximum
[13] = read-out: Plasma concentrations, mean
[14] = read-out: Plasma concentrations, median
[15] = read-out: Plasma concentrations, minimum

Kp at 28 day [1, 4]	Kp at 28 day [1, 5]	Kp at 28 day [1, 6]	Kp at 28 day [1, 7]	concentration at 28 day [1, 8]	concentration at 28 day [1, 9]	concentration at 28 day [1, 10]	concentration at 28 day [1, 11]	concentration at 28 day [2, 12]	concentration at 28 day [2, 13]	concentration at 28 day [2, 14]	concentration at 28 day [2, 15]	Compound	IC50 (PKC isotypes)	Tissue/plasma ratios [1]	Tissue concentrations [1]	Plasma concentrations [2]	Estimated median elimination t1/2 [3]
0.42	0.21	0.2	0.04	2.35 µM	0.99 µM	0.71 µM	0.175 µM	10.1 µM	5.36 µM	5.43 µM	2.47 µM	CN(C(=O)c1ccccc1)[C@@H]1C[C@H]2O[C@@](C)([C@@H]1O)n1c3ccccc3c3c4c(c5c6ccccc6n2c5c31)C(=O)NC4 [CGP 62221]	120 nM	0.04 and 0.19 and 0.21 and 0.11 and 0.35 and 0.34 and 0.12 and 0.22 and 0.42	175 nM and 609 nM and 523 nM and 759 nM and 2006 nM and 661 nM and 1022 nM and 651 nM and 1143 nM and 2353 nM	4.66 µM and 3.227 µM and 2.474 µM and 7.205 µM and 5.723 µM and 6.061 µM and 10.132 µM and 2.995 µM and 5.761 µM and 5.28 µM and 5.265 µM and 5.586 µM	
0.153	0.085	0.083	0.033	3.21 µM	1.51 µM	1.52 µM	0.635 µM	22.4 µM	17.3 µM	18.4 µM	10.8 µM	CO[C@@H]1[C@H](N(C)C(=O)c2ccccc2)C[C@H]2O[C@]1(C)n1c3ccccc3c3c4c(c5c6ccccc6n2c5c31)C(=O)NC4O (single isomer, unassigned) [CGP52421 (e2)]		0.03 and 0.09 and 0.07 and 0.06 and 0.12 and 0.08 and 0.11 and 0.05 and 0.15	635 nM and 1528 nM and 789 nM and 1031 nM and 2367 nM and 1569 nM and 1503 nM and 776 nM and 1644 nM and 3212 nM	19.151 µM and 16.633 µM and 11.311 µM and 18.383 µM and 19.519 µM and 18.475 µM and 22.448 µM and 13.352 µM and 10.767 µM and 15.869 µM and 20.34 µM and 20.944 µM	36 days
		0.083				1.52 µM				18.4 µM		CO[C@@H]1[C@H](N(C)C(=O)c2ccccc2)C[C@H]2O[C@]1(C)n1c3ccccc3c3c4c(c5c6ccccc6n2c5c31)C(=O)N[C@H]4O [CGP52421]	50 nM				
